Literature values in patent US20020032197A1 (priority 1998, published 2002).

Assays:
young healthy adults = conditions: 5 mg dose
individuals with RSBD = conditions: in vivo
[1] = test system: healthy volunteers exposed to an acute nociceptive stimulus; conditions: single oral dosing, 10 healthy volunteers
women with PMS = conditions: in vivo
MAO-A [2] = target: T1, MAO-A (Homo sapiens, UniProt P21397)
T1 sequence (P21397 1-527): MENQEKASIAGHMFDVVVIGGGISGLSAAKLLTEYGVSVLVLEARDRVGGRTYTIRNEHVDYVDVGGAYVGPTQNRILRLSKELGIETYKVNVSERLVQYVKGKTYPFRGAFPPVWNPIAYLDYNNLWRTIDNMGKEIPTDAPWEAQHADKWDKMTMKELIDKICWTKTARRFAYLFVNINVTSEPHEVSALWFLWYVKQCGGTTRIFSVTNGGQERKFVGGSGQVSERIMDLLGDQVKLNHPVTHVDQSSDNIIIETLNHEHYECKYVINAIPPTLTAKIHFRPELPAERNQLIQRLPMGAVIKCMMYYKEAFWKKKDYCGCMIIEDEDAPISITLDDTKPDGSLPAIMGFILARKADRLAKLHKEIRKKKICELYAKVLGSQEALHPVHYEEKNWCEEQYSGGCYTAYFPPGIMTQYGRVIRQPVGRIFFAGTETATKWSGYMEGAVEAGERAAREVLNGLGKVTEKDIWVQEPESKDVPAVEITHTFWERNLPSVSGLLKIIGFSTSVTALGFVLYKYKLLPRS

MAO-A [3] = target: T1, MAO-A; conditions: ex vivo
dopaminergic receptors = conditions: in vitro
adrenergic receptors = conditions: in vitro
benzodiazepine receptors = conditions: in vitro
opioid receptors = conditions: in vitro
monoamine metabolism = conditions: humans
[4] = doses as high as 600 mg daily
[5] = test system: sleep of healthy volunteers
MAO-A [6] = target: T1, MAO-A; remark: listed apart in the source
[7] = fluoxetine, bupropion and placebo compared

SMILES: COc1ccc2[nH]cc(CCNC(C)=O)c2c1 [Melatonin]
- sleep propensity and duration of sleep (young healthy adults): increased sleep propensity and the duration of sleep

SMILES: CC(NC(C)(C)C)C(=O)c1cccc(Cl)c1 (stereo not shown) [bupropion]
- efficacy and patient satisfaction in women with PMDD (women with PMDD; [7]): some improvement

SMILES: O=C1CN=C(c2ccccc2Cl)c2cc([N+](=O)[O-])ccc2N1 [clonazepam]
- cases of RSBD in which effective (individuals with RSBD): approximately 90%

SMILES: CNCCCN1c2ccccc2CCc2ccccc21 [desipramine]
- antinociceptive effect [1]: antinociceptive effect

SMILES: CNCCC(Oc1ccc(C(F)(F)F)cc1)c1ccccc1 (stereo not shown) [fluoxetine]
- efficacy and patient satisfaction in women with PMDD (women with PMDD; [7]): greater
- tolerability in women with PMDD (women with PMDD; [7]): well tolerated
- treatment of a range of symptoms in women with PMS (women with PMS): effective and well-tolerated

SMILES: COCCCC/C(=N\OCCN)c1ccc(C(F)(F)F)cc1 [fluvoxamine]
- antinociceptive effect [1]: antinociceptive effect

SMILES: O=C(NCCN1CCOCC1)c1ccc(Cl)cc1 [moclobemide, p-chloro-N-(2-morpholinoethyl)-benzamide]
- in vitro binding to MAO-A (MAO-A [2]): weak
- time to recovery of enzyme activity (reversible binding) (MAO-A [3]): ≤ 16 h
- affinity for dopaminergic receptors (dopaminergic receptors): no appreciable affinity
- affinity for adrenergic receptors (adrenergic receptors): no appreciable affinity
- affinity for benzodiazepine receptors (benzodiazepine receptors): no appreciable affinity
- affinity for opioid receptors (opioid receptors): no appreciable affinity
- plasma levels of homovanillic acid, 3,4-dihydroxyphenylacetic acid, 3-methoxy-4-hydroxyphenylglycol and 5-hydroxyindoleacetic acid (monoamine metabolism): reductions
- bioavailability (after multiple administrations): approx. 85%
- number of different metabolites (in vivo): at least 19
- elimination (patients with hepatic dysfunction): impaired
- absorption (single-dose oral administration): almost completely absorbed
- tolerability [4]: well-tolerated
- effects on sleep in comparison to other MAO inhibitors [5]: weak
- antinociceptive effect [1]: antinociceptive effect

SMILES: O=C(NCC[N+]1([O-])CCOCC1)c1ccc(Cl)cc1 [moclobemide-N-oxide, p-chloro-N-(2-morpholinoethyl)-benzamide-N′-oxide]
- MAO-A inhibitory activity (MAO-A [6]): MAO-A inhibitory activity

SMILES: NNCCc1ccccc1 [phenelzine]
- reduction of PTSD symptoms versus placebo (PTSD patients; Frank et al.): superior to placebo
- PTSD patients helped (PTSD patients; open trial (Davidson et al.)): 8 of 11
- response of patients with traumatic war neuroses (PTSD patients; open trial, 5 patients, after failing antipsychotics, tricyclics and psychotherapy): responded positively
- clinical improvement in PTSD patients (PTSD patients; treated openly for 4 to 18 weeks (Lerer et al.)): only modest clinical improvement

SMILES: CN[C@H]1CC[C@@H](c2ccc(Cl)c(Cl)c2)c2ccccc21 [sertraline]
- treatment of PMDD, symptomatic improvement and change in reported functional impairment (women with PMDD; versus placebo): significantly better than placebo
